Source: patent US9045524B2, “Selective caspase inhibitors and uses thereof” (NOVAGENESIS FOUNDATION, priority 2009, dated 2015)
Peptide text beside a SMILES is read from it. * marks the point of attachment. Cbz = O=C(OCc1ccccc1)*; CH2F = FC*

Assays:
Caspase-1 to -10 = test: Fluorometric caspase enzymatic assays, positive inhibitor control (all experiments); assay type: biochemical; conditions: Final concentration=20 uM
Method: In brief, each compound was serially diluted for a final test concentration range of 0.1 nM to 3.3 μM (10-point titration). Each active recombinant Caspase (Active Recombinant Caspase Set IV™ (BioVision, Cat# K233-10-25)) was added to the respective wells of the 96-well High Efficiency™ plates (Molecular Devices, Cat#75-000-0005), followed by the addition of the diluted test compounds. DMSO (Final=1%) or Z-VAD-FMK (Caspase-Family Inhibitor, Z-VAD-FMK (BioVision, Cat#1010-100), Final concentration=20 uM) was added in the designated wells as a background control or positive inhibitor control respectively. Each dilution of the test compounds was tested in duplicates, whereas the DMSO or Z-VAD-FMK controls were tested in triplicates. The synthetic peptide substrate specific for each Caspase (BioVision) was then added to the respective wells, which when cleaved by the active caspase releases free AFC that can be quantified by fluorometry. After a 30-minute incubation at 37° C., the plates were read using the Flexstation 3™ with a 400 nm excitation filter and a 505 nm emission filter (cutoff at 495 nm). The inhibition efficiency and the IC50 values of the test compounds were then determined by comparing the fluorescence intensity (FI) of the test compounds with that of the DMSO control. […]

EAE in C57BL/6 mice = test: Chronic EAE mouse model (MOG35-55 immunization), daily clinical score and body weight; assay type: in vivo; set-up: key to Delay in onset of the disease / Reduction in severity of the disease / Reduction in body weight loss: +++: high level improvement; ++: moderate improvement; +: small improvement; −: no improvement; conditions: for Delay in onset of the disease / Reduction in body weight loss / Reduction in severity of the disease: average overall effects on the EAE model, i.p.
Excerpt: The aim of this study was to verify the effectiveness of compounds in a chronic mouse animal model of EAE. EAE is a good proof-of-principle model of neurodegeneration since it encompasses degeneration or destruction of practically all the cells in the central nervous system, includes most major immunomodulatory components, and is able to maintain normal innate regenerative functions in the animal. This is a standard model (Antel J P et al., J Neurosci Res. 1997, 50: 345-353) used mainly to mimic the course evolution of Multiple Sclerosis (MS) in humans, and is commonly used for studying disease mechanisms and testing potential therapies. EAE is induced by immunization with myelin proteins, leading to development of myelin-specific T cells. These autoreactive T cells traffic into CNS parenchyma where they initiate an inflammatory cascade through recruitment of other cells such as monocytes and neutrophils. Accumulation of immune cells within CNS leads to myelin damage, axonal loss and clinical deficit in affected animals. EAE can be induced in a variety of species and strains of animals [mice, Rat, marmoset monkey, rhesus macaques] using various CNS antigens [Myelin Oligodendrocyte Glycoprotein (MOG), proteolipid protein (PLP) and myelin basic protein (MBP)]. Seven to 8 week old female C57BL/6 mice were purchased from Charles River Laboratories, and housed at MISPRO™ animal facility for one week before experimentation for adaptation to the new environment. All proper animal experimentation and ethics approvals were obtained prior to the start of any experiments. Mice were immunized subcutaneously with 100 μg of MOG35-55 (Sheldon Biotechnology Centre, McGill University) in CFA containing 5 mg/ml of desiccated (killed and dried) Mycobacterium tuberculosis H37Ra (Difco, Inc), at two sites on the back. The mice were then injected with 200 ng of pertussis toxin (List Biological Laboratories, Inc) in PBS intraperitoneally on days 0 and 2 using 25 gauge needles and scored daily using an EAE clinical scale as detailed below (Touil T et al., J Neurol Sci. 2008, 271:191-202; Antel J P et al., 1997, supra; Owens T et al., Curr Pharm Des. 2005, 1:1031-1037).
EAE was clinically assessed throughout the experiments by daily scoring using a scale from 0 to 5 as follows: partial limp tail, 0.5; full limp tail, 1; limp tail and waddling gait, 1.5; paralysis of one hind limb, 2; paralysis of one hind limb and partial paralysis of other hind limb, 2.5; paralysis of both hind limbs, 3; ascending paralysis, 3.5; paralysis of trunk, 4; moribund, 4.5; death, 5. In all the EAE models a body weight loss is always associated with the clinical signs. This body weight loss is associated with the loss of the function and the paralysis of the muscle (atrophy inducing loss of weight). For animals showing a clinical sign of 2 or more, the food and the water were presented inside the cage to facilitate eating and drinking.
At the onset of clinical signs of EAE, the mice were treated with 200 μl of Compound 51, 53, 57, 59, 101, 104, 105, 111 or 123 dissolved in 2.5% Dimethyl sulfoxide (DMSO) in PBS, while placebo groups were treated with 2.5% Dimethyl sulfoxide (DMSO) in PBS only, by intraperitoneal injection at different time of the clinical evolution.

Caspase-2 = Caspase-2 (Homo sapiens (Human), UniProt P42575); test: Fluorometric enzymatic assay, active recombinant Caspase-2; assay type: biochemical; conditions: 10-point titration 0.1 nM to 3.3 μM, 30-minute incubation at 37° C.; read-out: IC50 values (μM) Caspase-2
Method: (§1) . In brief, each compound was serially diluted for a final test concentration range of 0.1 nM to 3.3 μM (10-point titration). Each active recombinant Caspase (Active Recombinant Caspase Set IV™ (BioVision, Cat# K233-10-25)) was added to the respective wells of the 96-well High Efficiency™ plates (Molecular Devices, Cat#75-000-0005), followed by the addition of the diluted test compounds. DMSO (Final=1%) or Z-VAD-FMK (Caspase-Family Inhibitor, Z-VAD-FMK (BioVision, Cat#1010-100), Final concentration=20 uM) was added in the designated wells as a background control or positive inhibitor control respectively. Each dilution of the test compounds was tested in duplicates, whereas the DMSO or Z-VAD-FMK controls were tested in triplicates. The synthetic peptide substrate specific for each Caspase (BioVision) was then added to the respective wells, which when cleaved by the active caspase releases free AFC that can be quantified by fluorometry. After a 30-minute incubation at 37° C., the plates were read using the Flexstation 3™ with a 400 nm excitation filter and a 505 nm emission filter (cutoff at 495 nm). The inhibition efficiency and the IC50 values of the test compounds were then determined by comparing the fluorescence intensity (FI) of the test compounds with that of the DMSO control.
(§2) The SoftMax Pro Software™ (v5.2 rev C, Molecular Devices) was used for data analysis. The % Inhibition is calculated by: % Inhibition=[FI(DMSO)−FI(test sample)/FI(DMSO)]×100. The % Inhibition vs. Log(concentration) was plotted, and the curve was fitted using the 5-parameter fit of the software.

Caspase-5 = Caspase-5 (Homo sapiens (Human), UniProt P51878); test: Fluorometric enzymatic assay, active recombinant Caspase-5; assay type: biochemical; conditions: 10-point titration 0.1 nM to 3.3 μM, 30-minute incubation at 37° C.; read-out: IC50 values (μM) Caspase-5
Method: as §1, §2

Caspase-6 = Caspase-6 (Homo sapiens (Human), UniProt P55212); test: Fluorometric enzymatic assay, active recombinant Caspase-6; assay type: biochemical; conditions: 10-point titration 0.1 nM to 3.3 μM, 30-minute incubation at 37° C.; read-out: IC50 values (μM) Caspase-6
Method: as §1, §2

Caspase-8 = Caspase-8 (Homo sapiens (Human), UniProt Q14790); test: Fluorometric enzymatic assay, active recombinant Caspase-8; assay type: biochemical; conditions: 10-point titration 0.1 nM to 3.3 μM, 30-minute incubation at 37° C.; read-out: IC50 values (μM) Caspase-8
Method: as §1, §2

Caspase-1 = Caspase-1 (Homo sapiens (Human), UniProt P29466); test: Fluorometric enzymatic assay, active recombinant Caspase-1; conditions: read-out: IC50 values (μM) Caspase-1; 10-point titration 0.1 nM to 3.3 μM, 30-minute incubation at 37° C.
Method: (§3) Each dilution of the test compounds was tested in duplicates, whereas the DMSO or Z-VAD-FMK controls were tested in triplicates. […] The inhibition efficiency and the IC50 values of the test compounds were then determined by comparing the fluorescence intensity (FI) of the test compounds with that of the DMSO control.

Caspase-3 = Caspase-3 (Homo sapiens (Human), UniProt P42574); test: Fluorometric enzymatic assay, active recombinant Caspase-3; conditions: for inhibitory activity towards Caspase-3: FIG. 5; for IC50: read-out: IC50 values (μM) Caspase-3, 10-point titration 0.1 nM to 3.3 μM, 30-minute incubation at 37° C.
Method: as §3

Caspase-4 = Caspase-4 (Homo sapiens (Human), UniProt P49662); test: Fluorometric enzymatic assay, active recombinant Caspase-4; conditions: read-out: IC50 values (μM) Caspase-4; 10-point titration 0.1 nM to 3.3 μM, 30-minute incubation at 37° C.
Method: as §3

Caspase-7 = Caspase-7 (Homo sapiens (Human), UniProt P55210); test: Fluorometric enzymatic assay, active recombinant Caspase-7; conditions: for IC50: read-out: IC50 values (μM) Caspase-7, 10-point titration 0.1 nM to 3.3 μM, 30-minute incubation at 37° C.
Method: as §3

Caspase-9 = Caspase-9 (Homo sapiens (Human), UniProt P55211); test: Fluorometric enzymatic assay, active recombinant Caspase-9; conditions: for IC50: read-out: IC50 values (μM) Caspase-9, 10-point titration 0.1 nM to 3.3 μM, 30-minute incubation at 37° C.
Method: as §3

Caspase-10 = Caspase-10 (Homo sapiens (Human), UniProt Q92851); test: Fluorometric enzymatic assay, active recombinant Caspase-10; conditions: for IC50: read-out: IC50 values (μM) Caspase-10, 10-point titration 0.1 nM to 3.3 μM, 30-minute incubation at 37° C.
Method: as §3

[1] = FIG. 3, i.p. from day 14 to 19 post immunization, versus placebo

Sequence of Caspase-10 (Q92851 220-415): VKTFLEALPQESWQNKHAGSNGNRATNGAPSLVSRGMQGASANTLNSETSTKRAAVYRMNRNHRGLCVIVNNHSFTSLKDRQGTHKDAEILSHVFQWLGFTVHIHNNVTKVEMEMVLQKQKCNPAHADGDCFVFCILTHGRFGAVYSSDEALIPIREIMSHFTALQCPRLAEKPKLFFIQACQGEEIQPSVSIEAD
Sequence of Caspase-10 (Q92851 416-521): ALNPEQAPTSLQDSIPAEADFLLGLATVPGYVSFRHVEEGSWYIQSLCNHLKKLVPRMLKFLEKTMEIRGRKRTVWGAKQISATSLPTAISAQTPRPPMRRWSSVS
Sequence of Caspase-3 (P42574 29-175): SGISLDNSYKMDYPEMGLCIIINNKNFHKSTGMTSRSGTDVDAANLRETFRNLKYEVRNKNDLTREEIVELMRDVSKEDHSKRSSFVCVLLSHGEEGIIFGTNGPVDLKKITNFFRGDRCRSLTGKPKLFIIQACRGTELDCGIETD
Sequence of Caspase-3 (P42574 176-277): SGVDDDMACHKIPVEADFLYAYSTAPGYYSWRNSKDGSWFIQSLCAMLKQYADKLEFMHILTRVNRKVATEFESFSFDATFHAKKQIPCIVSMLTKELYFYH
Sequence of Caspase-9 (P55211 whole entry, looked up, change not shown): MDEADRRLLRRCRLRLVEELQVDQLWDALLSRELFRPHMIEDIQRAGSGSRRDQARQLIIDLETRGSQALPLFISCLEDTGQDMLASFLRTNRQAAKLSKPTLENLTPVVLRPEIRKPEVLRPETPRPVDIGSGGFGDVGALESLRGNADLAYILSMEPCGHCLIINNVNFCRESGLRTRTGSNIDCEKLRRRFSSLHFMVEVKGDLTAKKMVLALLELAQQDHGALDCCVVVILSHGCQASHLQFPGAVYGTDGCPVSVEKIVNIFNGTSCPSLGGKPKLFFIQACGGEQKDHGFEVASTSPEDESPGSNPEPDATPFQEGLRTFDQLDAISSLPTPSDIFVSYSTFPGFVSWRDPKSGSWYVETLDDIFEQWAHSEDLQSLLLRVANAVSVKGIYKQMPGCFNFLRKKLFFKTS
Sequence of Caspase-9 (P55211 whole entry, looked up, change not shown): as above
Sequence of Caspase-7 (P55210 whole entry, looked up): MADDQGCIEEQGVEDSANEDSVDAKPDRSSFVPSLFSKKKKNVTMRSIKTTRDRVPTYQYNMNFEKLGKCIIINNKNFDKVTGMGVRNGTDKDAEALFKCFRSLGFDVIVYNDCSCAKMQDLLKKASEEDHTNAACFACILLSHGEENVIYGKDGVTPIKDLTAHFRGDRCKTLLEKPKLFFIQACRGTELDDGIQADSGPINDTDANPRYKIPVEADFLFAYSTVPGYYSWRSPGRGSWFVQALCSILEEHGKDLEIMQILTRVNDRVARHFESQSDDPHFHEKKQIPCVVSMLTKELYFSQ
Sequence of Caspase-7 (P55210 whole entry, looked up): as above
Sequence of Caspase-8 (Q14790 217-374): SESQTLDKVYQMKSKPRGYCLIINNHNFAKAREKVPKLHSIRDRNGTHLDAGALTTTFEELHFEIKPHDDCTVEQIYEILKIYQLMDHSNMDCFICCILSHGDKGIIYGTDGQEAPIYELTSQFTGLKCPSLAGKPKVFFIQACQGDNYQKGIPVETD
Sequence of Caspase-8 (Q14790 385-479): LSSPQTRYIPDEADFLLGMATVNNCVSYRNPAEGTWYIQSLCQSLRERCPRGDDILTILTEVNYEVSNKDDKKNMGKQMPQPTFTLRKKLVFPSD
Sequence of Caspase-6 (P55212 24-179): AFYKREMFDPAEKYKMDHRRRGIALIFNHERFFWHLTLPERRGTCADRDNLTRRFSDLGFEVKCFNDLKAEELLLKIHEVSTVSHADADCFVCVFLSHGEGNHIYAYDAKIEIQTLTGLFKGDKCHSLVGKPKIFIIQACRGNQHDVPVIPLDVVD
Sequence of Caspase-6 (P55212 194-293): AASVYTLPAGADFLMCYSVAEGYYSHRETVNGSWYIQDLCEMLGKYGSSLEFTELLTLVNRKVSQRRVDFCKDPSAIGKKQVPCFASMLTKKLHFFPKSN
Sequence of Caspase-5 (P51878 whole entry, looked up): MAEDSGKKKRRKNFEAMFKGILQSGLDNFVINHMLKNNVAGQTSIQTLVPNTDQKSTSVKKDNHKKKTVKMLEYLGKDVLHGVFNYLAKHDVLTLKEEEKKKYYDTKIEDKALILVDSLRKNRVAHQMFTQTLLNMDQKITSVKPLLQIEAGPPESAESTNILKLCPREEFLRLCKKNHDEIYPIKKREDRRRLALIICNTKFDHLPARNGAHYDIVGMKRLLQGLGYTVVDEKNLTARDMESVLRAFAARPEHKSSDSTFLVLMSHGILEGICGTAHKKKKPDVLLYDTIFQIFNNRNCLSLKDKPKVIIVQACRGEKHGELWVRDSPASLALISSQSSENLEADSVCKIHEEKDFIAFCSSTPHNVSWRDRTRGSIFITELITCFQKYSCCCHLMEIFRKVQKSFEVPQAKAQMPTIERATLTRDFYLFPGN
Sequence of Caspase-5 (P51878 whole entry, looked up): as above
Sequence of Caspase-1 (P29466 whole entry, looked up): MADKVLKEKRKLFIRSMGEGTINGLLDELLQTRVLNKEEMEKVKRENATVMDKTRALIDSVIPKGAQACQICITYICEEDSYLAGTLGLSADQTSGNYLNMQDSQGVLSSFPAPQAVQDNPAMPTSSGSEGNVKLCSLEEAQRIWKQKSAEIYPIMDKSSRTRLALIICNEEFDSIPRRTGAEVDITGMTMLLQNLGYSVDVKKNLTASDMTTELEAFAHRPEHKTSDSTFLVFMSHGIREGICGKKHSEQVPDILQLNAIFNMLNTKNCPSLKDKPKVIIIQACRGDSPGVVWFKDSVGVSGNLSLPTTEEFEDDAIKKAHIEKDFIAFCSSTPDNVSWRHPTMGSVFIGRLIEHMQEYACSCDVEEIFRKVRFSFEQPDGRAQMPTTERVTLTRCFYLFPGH
Sequence of Caspase-1 (P29466 whole entry, looked up): as above
Sequence of Caspase-4 (P49662 81-270): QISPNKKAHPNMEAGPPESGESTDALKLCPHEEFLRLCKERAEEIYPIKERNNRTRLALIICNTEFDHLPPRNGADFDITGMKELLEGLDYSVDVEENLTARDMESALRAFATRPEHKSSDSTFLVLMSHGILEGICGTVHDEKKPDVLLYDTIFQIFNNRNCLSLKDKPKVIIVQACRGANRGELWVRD
Sequence of Caspase-4 (P49662 290-377): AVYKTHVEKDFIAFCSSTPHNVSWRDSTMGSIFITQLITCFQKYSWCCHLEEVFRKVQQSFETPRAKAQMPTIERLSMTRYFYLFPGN
Sequence of Caspase-2 (P42575 170-325): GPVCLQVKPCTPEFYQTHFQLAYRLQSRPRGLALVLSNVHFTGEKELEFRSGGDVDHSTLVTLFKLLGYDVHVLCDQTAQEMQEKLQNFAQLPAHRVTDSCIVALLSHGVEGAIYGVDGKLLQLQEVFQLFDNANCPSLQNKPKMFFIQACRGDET
Sequence of Caspase-2 (P42575 348-452): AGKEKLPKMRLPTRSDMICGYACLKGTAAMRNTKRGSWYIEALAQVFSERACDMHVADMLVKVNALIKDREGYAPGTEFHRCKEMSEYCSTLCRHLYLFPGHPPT

Row | SMILES | inhibition by positive inhibitor control (Caspase-1 to -10) | effects on the clinical course of EAE (EAE in C57BL/6 mice; [1]) | Delay in onset of the disease (EAE in C57BL/6 mice) | Reduction in body weight loss (EAE in C57BL/6 mice) | Reduction in severity of the disease (EAE in C57BL/6 mice) | IC50 (Caspase-2) | IC50 (Caspase-5) | IC50 (Caspase-6) | IC50 (Caspase-8) | IC50 (Caspase-1) | inhibitory activity towards Caspase-3 (Caspase-3) | IC50 (Caspase-3) | IC50 (Caspase-4) | IC50 (Caspase-7) | IC50 (Caspase-9) | IC50 (Caspase-10) | Loss of body weight (EAE in C57BL/6 mice; [1]) | inhibitory activity towards Caspase-7 (Caspase-7; FIG. 5) | inhibitory activity towards Caspase-9 (Caspase-9; FIG. 5) | inhibitory activity towards Caspase-10 (Caspase-10; FIG. 5)
1 | COC(=O)C[C@H](NC(=O)[C@H](C)NC(=O)[C@@H](NC(=O)OCc1ccccc1)C(C)C)C(=O)CF [Z-VAD-FMK, benzyloxycarbonyl-Val-Ala-Asp-fluoromethylketone] (Cbz-Val-Ala-Asp(OMe)-CH2F) | > 50% |  |  |  |  |  |  |  |  |  |  |  |  |  |  |  |  |  |  | 
2 | CC(C)[C@H](NC(=O)[C@H](Cc1cccc2ccccc12)NC(=O)[C@H](CC(=O)O)NC(=O)OCc1ccccc1)C(=O)N[C@H](/C=C/S(C)(=O)=O)CC(=O)O [Compound 111, Z-Asp-3-(1-naphtyl)-L-alanine-Val-Aspmethyl vinyl sulfone] |  | ameliorating effects | + | ++ | ++ | > 3.33 µM | > 3.33 µM | > 3.33 µM | > 3.33 µM | > 3.33 µM | high inhibitory activity | 0.08 µM | > 3.33 µM | > 3.33 µM | > 3.33 µM | > 3.33 µM |  |  |  | 
3 | CC(C)[C@H](NC(=O)[C@@H](NC(=O)[C@H](CC(=O)O)NC(=O)OCc1ccccc1)c1ccccc1)C(=O)N[C@H](/C=C(\Cl)S(C)(=O)=O)CC(=O)O [Compound 123, Z-Asp-phenylglycine-Val-Asp-achlorovinyl methylsulfone] |  | ameliorating effects | + | +++ | ++ | > 3.33 µM | > 3.33 µM | > 3.33 µM | > 3.33 µM | > 3.33 µM | high inhibitory activity | 0.06 µM | > 3.33 µM | 0.5 µM | 2.8 µM | 2 µM | less than in the placebo group | high inhibitory activity | inhibitory activity | inhibitory activity
